Data published in patent US20090226395A1, “Pharmaceutical compositions of beta-lapachone and beta-lapachone analogs with improved tumor targeting potential” (ArQule, Inc., priority 2004, published 2009).

Tests used:
DLD-1 cells = experiment: MTS cell viability assay, DLD-1 cells; assay type: cell-based
Procedure: (§1) Cell viability is determined by measuring the activity of dehydrogenase enzymes in metabolically active cells using a tetrazolium compound, MTS. The assay is performed as described in Promega Technical Bulletin No. 169 (CellTiter 96 Aqueous Non-Radioactive Cell Proliferation Assay). Two cell lines, DLD-1 and NCM-460 are assayed (see, e.g., Table 2). Cells are maintained at 37° C., 5% CO2. Adherent cells are maintained DMEM media (4.5 g/L glucose) supplemented with 15% heat-inactivated FBS, 10 mM L-glutamine, and 10 mM Hepes pH 7.5. Suspension cells are maintained in RPMI 1640 media, supplemented with 10% heat-inactivated FBS and 10 mM Hepes pH 7.5. […] Candidate compounds, including the polymer-modified therapeutics to be tested, are serially diluted in the indicated solvents are, further diluted in cell culture media, and then added to cells. […] MTS stock solution (MTS 2 gm/L, PMS […] in PBS) is added to the cells (final concentration MTS […] and PMS 7.67 mg/L) and incubated for 4 hours. […] The IC50 is defined as the concentration of compound that results in a 50% reduction in the number of viable cells as compared to control wells treated with DMSO only (0.33%) and 0.3% SDS, and is calculated using non-linear regression analysis.

NCM-460 cells = experiment: MTS cell viability assay, NCM-460 cells; assay type: cell-based
Procedure: as §1

[1] = Hydrolytic release of β-lapachone or ketal from poly-L-glutamate conjugates, monitored by HPLC; assay type: physicochemical
Source text: […] The complete release of 2,2-dimethyl-3,4-dihydro-2H-benzo[h]chromene-5,6-dione from the conjugate is achieved within 2-3 days as monitored by HPLC. In addition to the 2,2-dimethyl-3,4-dihydro-2H-benzo[h]chromene-5,6-dione peak, two additional peaks are detected in the HPLC chromatogram. These peaks are believed to be products of the degradation of 2,2-dimethyl-3,4-dihydro-2H-benzo[h]chromene-5,6-dione and an alternate hydrolysis product of conjugate. The concentration of released 2,2-dimethyl-3,4-dihydro-2′-1-benzo[h]chromene-5,6-dione is calculated by comparing the peak areas with the previously obtained calibration curve of 2,2-dimethyl-3,4-dihydro-2H-benzo[h]chromene-5,6-dione standard. […] Loading on the polymer is then calculated as follows: […]
The conjugate is dissolved in water at a concentration of about 0.3 mg/ml and sonicated to facilitate dissolution. […] The concentration of released 2,2-dimethyl-3,4-dihydro-2H-benzo[h]chromene-5,6-dione is determined by HPLC and the quantity calculated by comparing the peak areas with a previously obtained calibration curve of 2,2-dimethyl-3,4-dihydro-2H-benzo[h]chromene-5,6-dione standard, as described above in Example 10. […]

human cancer cell lines = details: single agent; typical range; read-out: antineoplastic activity against human cancer cell lines (IC50); cited from earlier work
[2] = system: human peripheral blood mononuclear cells (PBMC); details: cited from earlier work
[3] = molecular target: T1, human DNA Topoisomerases I (Homo sapiens, UniProt P11387); details: cited from earlier work
T1 sequence (P11387 1-765): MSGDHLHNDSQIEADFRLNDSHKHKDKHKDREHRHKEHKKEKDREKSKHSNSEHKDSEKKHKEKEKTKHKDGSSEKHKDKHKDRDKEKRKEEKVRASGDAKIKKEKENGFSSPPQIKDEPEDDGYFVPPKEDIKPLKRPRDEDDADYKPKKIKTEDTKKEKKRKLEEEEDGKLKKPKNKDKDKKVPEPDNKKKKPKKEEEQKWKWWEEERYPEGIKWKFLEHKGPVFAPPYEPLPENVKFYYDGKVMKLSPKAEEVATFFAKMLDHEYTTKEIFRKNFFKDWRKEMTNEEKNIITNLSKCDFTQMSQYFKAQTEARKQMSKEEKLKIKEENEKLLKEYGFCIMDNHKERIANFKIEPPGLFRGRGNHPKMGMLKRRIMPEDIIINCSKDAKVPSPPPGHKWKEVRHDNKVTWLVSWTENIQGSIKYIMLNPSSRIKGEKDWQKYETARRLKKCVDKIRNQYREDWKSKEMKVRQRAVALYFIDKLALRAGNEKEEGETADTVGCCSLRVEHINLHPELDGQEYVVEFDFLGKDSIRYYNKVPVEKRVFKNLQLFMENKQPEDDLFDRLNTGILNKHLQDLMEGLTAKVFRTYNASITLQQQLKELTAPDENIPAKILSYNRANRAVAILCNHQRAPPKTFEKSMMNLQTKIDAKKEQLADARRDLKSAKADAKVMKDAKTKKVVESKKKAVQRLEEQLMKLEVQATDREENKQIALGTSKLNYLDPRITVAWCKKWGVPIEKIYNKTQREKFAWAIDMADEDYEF

[4] = molecular target: human DNA Topoisomerases II (Homo sapiens, UniProt P11388); details: cited from earlier work
Chain of human DNA Topoisomerases II (P11388 whole entry): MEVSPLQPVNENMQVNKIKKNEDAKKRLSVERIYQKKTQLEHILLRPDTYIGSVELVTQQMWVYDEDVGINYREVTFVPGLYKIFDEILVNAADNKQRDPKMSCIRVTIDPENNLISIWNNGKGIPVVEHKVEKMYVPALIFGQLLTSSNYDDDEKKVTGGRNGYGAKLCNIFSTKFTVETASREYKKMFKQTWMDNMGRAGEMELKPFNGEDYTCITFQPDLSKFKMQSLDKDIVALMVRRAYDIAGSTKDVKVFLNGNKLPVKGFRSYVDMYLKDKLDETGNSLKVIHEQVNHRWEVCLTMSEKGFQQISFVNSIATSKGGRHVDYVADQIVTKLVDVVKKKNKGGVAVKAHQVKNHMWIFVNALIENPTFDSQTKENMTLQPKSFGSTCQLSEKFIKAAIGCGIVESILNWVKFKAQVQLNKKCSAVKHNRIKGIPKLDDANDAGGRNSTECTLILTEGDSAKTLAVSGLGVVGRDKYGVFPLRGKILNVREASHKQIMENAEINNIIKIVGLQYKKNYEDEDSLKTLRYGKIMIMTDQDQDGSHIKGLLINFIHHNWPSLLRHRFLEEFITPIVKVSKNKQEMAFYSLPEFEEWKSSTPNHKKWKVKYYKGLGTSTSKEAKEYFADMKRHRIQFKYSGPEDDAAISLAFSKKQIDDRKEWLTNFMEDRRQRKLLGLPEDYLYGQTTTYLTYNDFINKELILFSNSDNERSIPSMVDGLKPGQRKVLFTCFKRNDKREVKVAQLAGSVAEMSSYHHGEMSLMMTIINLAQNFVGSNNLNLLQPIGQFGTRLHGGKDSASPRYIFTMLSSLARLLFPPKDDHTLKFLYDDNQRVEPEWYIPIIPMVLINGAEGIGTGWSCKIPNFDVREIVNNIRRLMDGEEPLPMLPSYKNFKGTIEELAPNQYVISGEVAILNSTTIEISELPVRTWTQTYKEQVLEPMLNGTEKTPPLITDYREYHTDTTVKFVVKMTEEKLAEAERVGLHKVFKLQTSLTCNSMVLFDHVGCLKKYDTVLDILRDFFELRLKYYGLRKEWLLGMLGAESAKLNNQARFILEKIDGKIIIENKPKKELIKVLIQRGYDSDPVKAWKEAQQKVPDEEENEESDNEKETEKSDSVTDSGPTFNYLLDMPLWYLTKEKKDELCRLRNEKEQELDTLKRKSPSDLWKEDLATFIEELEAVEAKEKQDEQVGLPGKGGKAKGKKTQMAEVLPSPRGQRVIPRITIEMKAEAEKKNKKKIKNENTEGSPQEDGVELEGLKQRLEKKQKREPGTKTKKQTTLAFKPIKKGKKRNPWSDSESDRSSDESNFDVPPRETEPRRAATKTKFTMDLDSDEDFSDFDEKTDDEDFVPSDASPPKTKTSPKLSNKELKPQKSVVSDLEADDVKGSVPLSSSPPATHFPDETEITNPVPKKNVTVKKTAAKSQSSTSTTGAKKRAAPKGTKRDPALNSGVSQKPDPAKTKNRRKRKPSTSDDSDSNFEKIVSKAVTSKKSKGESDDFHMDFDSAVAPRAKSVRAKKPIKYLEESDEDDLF

Row | IC50 (DLD-1 cells; Homo sapiens, DLD-1, incubation time 20 hours) [µM] | IC50 (DLD-1 cells; Homo sapiens, DLD-1, incubation time 72 hours) [µM] | Compound | IC50 (DLD-1 cells; incubation time 20 hours) [µM] | IC50 (DLD-1 cells; incubation time 72 hours) [µM] | IC50 (NCM-460 cells; incubation time 20 hours) [µM] | IC50 (NCM-460 cells; incubation time 72 hours) [µM] | time for hydrolysis of β-lapachone from the conjugate ([1]; pH 11.4) [min] | time to complete release of β-lapachone from the conjugate ([1]; phosphate buffer pH 9.6, about 0.1 mg/ml) [days] | IC50 (NCM-460 cells; Homo sapiens, NCM460, incubation time 20 hours) [µM] | IC50 (NCM-460 cells; Homo sapiens, NCM460, incubation time 72 hours) [µM] | IC50 (human cancer cell lines) [µM] | cytotoxic effects on normal fresh or proliferating human PBMC [2] | in vitro inhibition of human DNA Topoisomerase I [3] | in vitro inhibition of human DNA Topoisomerase II [4]
1 | – | – | 5-(acetyloxy)-2,2-dimethyl-3,4-dihydro-2H-benzo[h]chromen-6-yl glycinate γ-poly-L-glutamate | 4.42 | 1.39 | 8.12 | 3.66 | 20 | 2 to 3 | – | – | – | – | – | –
2 | 3.13 | 1.71 | CC1(C)CCC2=C(O1)c1ccccc1C(=O)C2=O [β-lapachone, 3,4-dihydro-2,2-dimethyl-2H-naphtho[1,2-b]pyran-5,6-dione, reference compound] | – | – | – | – | – | – | 8.19 | 3.25 | 1 to 10 | No cytotoxic effects were observed | potent in vitro inhibition | potent in vitro inhibition
3 | – | – | (2,2-dimethyl-5-oxo-3,4-dihydro-2H,5H-spiro[benzo[h]chromene-6,2′-[1,3]dioxolan]-4′-yl)methyl γ-poly-L-glutamate sodium | > 100 | > 100 | > 100 | > 100 | – | – | – | – | – | – | – | –
